Experimental findings from patent US7754709B2 (Solvay Pharmaceuticals BV, priority 2003, dated 2010) are described below.

What all share (assay type): cell-based
For experiment [1], the target named is T1, 17β-hydroxysteroid dehydrogenase type 1 (Homo sapiens, UniProt P14061).
T1 construct: expressed in transfected cells; host or cells: MCF-7
T1 sequence (P14061 1-328): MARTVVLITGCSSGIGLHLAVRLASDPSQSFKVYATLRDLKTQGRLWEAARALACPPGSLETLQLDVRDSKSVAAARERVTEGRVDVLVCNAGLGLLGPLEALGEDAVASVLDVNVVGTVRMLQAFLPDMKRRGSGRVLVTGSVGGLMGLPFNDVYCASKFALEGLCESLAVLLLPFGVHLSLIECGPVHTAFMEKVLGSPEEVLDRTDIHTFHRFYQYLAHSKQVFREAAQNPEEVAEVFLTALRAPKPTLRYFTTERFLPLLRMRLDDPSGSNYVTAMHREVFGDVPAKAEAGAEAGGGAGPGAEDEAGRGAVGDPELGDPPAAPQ
Nature of the experiment: Inhibition of 17β-HSD type 1 in MCF-7 cells stably expressing the isoenzyme (HPLC, tritium labeled estrone). Particulars: 2 nM estrone, read-out: % Inhibition of the 17β-HSD enzyme type 1 (HSD1); for inhibition at 1 µM: MCF7, 1 μM compound; for inhibition at 10 µM: MCF7, 10 μM compound. The method in brief:
(§1)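 MCF-7 lines each stably expressing one isoenzyme incubated in growth medium with compound (two concentrations) and 2 nM tritiated substrate: estrone (type 1), estradiol (type 2), androstenedione (type 3). TCA-stopped; conversion by HPLC with flow scintillation, inhibition relative to compound-free control.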

The target in experiment [2] is T2, 17β-hydroxysteroid dehydrogenase type 2 (Homo sapiens, UniProt P37059).
T2 construct: expressed in transfected cells; host or cells: MCF-7
T2 sequence (P37059 1-387): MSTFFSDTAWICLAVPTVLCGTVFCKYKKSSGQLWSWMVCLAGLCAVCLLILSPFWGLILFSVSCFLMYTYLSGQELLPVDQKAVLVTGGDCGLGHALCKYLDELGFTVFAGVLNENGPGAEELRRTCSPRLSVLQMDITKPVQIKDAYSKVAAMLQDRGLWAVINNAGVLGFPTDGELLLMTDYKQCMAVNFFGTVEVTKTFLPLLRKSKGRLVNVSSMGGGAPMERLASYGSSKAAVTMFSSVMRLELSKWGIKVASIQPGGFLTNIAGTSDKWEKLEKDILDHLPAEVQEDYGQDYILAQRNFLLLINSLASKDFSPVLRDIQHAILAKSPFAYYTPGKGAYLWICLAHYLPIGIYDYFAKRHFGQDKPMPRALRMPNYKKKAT
In words: Inhibition of 17β-HSD type 2 in MCF-7 cells stably expressing the isoenzyme (HPLC, tritium labeled estradiol). To be noted: 2 nM estradiol, read-out: % Inhibition of the 17β-HSD enzyme type 2 (HSD2); for inhibition at 1 µM: MCF7, 1 μM compound; for inhibition at 10 µM: MCF7, 10 μM compound. The method in brief:
as §1

Experiment [3] deals with T3, 17β-hydroxysteroid dehydrogenase type 3 (Homo sapiens, UniProt P37058).
T3 construct: expressed in transfected cells; host or cells: MCF-7
T3 sequence (P37058 1-310): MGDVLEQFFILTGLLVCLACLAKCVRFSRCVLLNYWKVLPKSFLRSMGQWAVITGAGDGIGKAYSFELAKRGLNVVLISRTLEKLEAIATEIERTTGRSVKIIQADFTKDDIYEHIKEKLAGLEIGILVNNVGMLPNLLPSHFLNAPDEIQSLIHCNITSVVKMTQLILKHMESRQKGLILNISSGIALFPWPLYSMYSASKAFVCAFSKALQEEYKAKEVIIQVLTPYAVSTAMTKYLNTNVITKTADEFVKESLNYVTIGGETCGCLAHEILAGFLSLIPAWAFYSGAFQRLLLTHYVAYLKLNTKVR
In words: Inhibition of 17β-HSD type 3 in MCF-7 cells stably expressing the isoenzyme (HPLC, tritium labeled androstenedione). Particulars: 2 nM androstenedione, read-out: % Inhibition of the 17β-HSD enzyme type 3 (HSD3); for inhibition at 1 µM: MCF7, 1 μM compound; for inhibition at 10 µM: MCF7, 10 μM compound. The method in brief:
as §1

`CC1CCc2c(sc3nc4n(c(=O)c23)CCCCC4)C1` (stereo not drawn) [Compound 27, 3-Methyl-2,3,4,7,8,9, 10,11-octahydro-[1]benzothieno[2′,3′: 4,5]pyrimido-[1,2-a]azepin-13(1H)-one]: the inhibition (in general, the relative decrease from the control value, in per cent) at 1 µM was 11.4% in experiment [1], 5.3% in experiment [2] and 22.9% in experiment [3]. Moreover, the results for the inhibition at 10 µM in experiment [1], in experiment [2] and in experiment [3] were 25.6%, 3.2% and 24.9%, respectively.
In the case of `CC1CCc2c(sc3nc4n(c(=O)c23)CCCCC4)C1=O` (stereo not drawn) [Compound 28, 2,3,8,9,10,11-Hexahydro-3-methyl-[1]benzothieno[2′,3′: 4,5]pyrimido[1,2-a]azepin-4,13(1H,7H)-dione], the inhibition at 1 µM worked out at 14.3% in experiment [1], 18.2% in experiment [2] and 7.8% in experiment [3]. For the same compound, the results for the inhibition at 10 µM in experiment [1], in experiment [2] and in experiment [3] were 15.3%, 18.7% and 9.5%, respectively.
`CC(C)(C)C1CCc2c(sc3nc4n(c(=O)c23)CCCCC4)C1` (stereo not drawn) [Compound 29, 3-t-Butyl-2,3,4,7,8,9,10,11-octahydro-[1]benzothieno[2′,3′: 4,5]pyrimido-[1,2-a]azepin-13(1H)-one]: the inhibition at 1 µM in experiment [1] was -1%; in experiment [2] it was 13.1%; in experiment [3], 14.9%. Moreover, the inhibition at 10 µM in experiment [1] worked out at 1.3%; in experiment [2], 10.1%; in experiment [3], 25.8%.
For `O=CC1=C([S+]([O-])c2ccccc2)c2sc3nc4n(c(=O)c3c2CC1)CCCCC4` (stereo not drawn) [Compound 30, 1,2,7,8,9,10,11,13-Octahydro-13-oxo-4-(phenylsulfinyl)-[1]benzothieno[2′,3′: 4,5]-pyrimido-[1,2-a]azepine-3-carbaldehyde], the inhibition at 1 µM worked out at 23.1% in experiment [1], 12.8% in experiment [2] and 11.1% in experiment [3]. Further, the inhibition at 10 µM in experiment [1] came out at 49%; in experiment [2] it was 24.8%; in experiment [3], 31.2%.
For `O=C(O)C1=C(Cl)c2sc3nc4n(c(=O)c3c2CC1)CCCCC4` [Compound 31, 4-Chloro-1,2,7,8,9, 10,11,13-octahydro-13-oxo-[1]benzothieno[2′,3′: 4,5]pyrimido[1,2-a]azepine-3-carboxylic acid], the inhibition at 1 µM in experiment [1] is 2.1%; in experiment [2] it was -0.2%; in experiment [3] it was -6.4%. Moreover, the inhibition at 10 µM was 6.8% in experiment [1], 9.3% in experiment [2] and -3.9% in experiment [3].
`O=c1c2c3c(sc2nc2n1CCC(CO)CC2)CCCC3` (stereo not drawn) [Compound 35, 9-(Hydroxymethyl)-2,3,4,7,8,9,10,11-octahydro-[1]benzothieno[2′,3′: 4,5]pyrimido[1,2-a]azepin-13(1H)-one]: the inhibition at 1 µM came to 4.8% in experiment [1], 15.8% in experiment [2] and 16.2% in experiment [3]. Also, the inhibition at 10 µM in experiment [1] came to 22.4%; in experiment [2], 27.7%; in experiment [3], 23.4%.
